Values of other authors in US20250221949A1, “ANTISEPTIC, ANTISEBORRHEIC, EXFOLIATING COMPOSITION TO REMOVE OR PREVENT ACNE” (Excalibur Pharmaceuticals, Inc., priority 2012, published 2025).

Test system: Candida albicans, some Trichomonas, Staphylococcus aureus; Escherichia coli, Salmonella typhi, S. paratyphi, Shigella dysenterica and Vibro cholera species
Details: background statement

**Q.** For `C=CCS[S+]([O-])CC=C` (stereo not shown) [DDO, diallyl disulphide oxide], which “in vitro activity against microorganisms (in words)” value is on record?
**A.** Its value is “has in vitro activity”.
